Source: patent publication US20020197233A1, “Methods of treating central nervous system ischemic or hemorrhagic injury using anti alpha4 integrin antagonists” (priority 1999, published 2002)

Experiments:
[1] = tested on: spontaneously hypertensive rats (SHRs); assay: Reversible middle cerebral artery occlusion (MCAO), infarct volume, spontaneously hypertensive rats; type: in vivo, rat; conditions: 300 ng/kg/min continuous subcutaneous infusion, vs vehicle treated controls, 24 h after induction of cerebral ischemia (1 h MCAO)
Experimental: (§1) Male Sprague Dawley (SD) or spontaneously hypertensive rats (SHRS) were anesthetized using isoflurane and the right middle cerebral artery (MCAO) occluded by insertion of a 4-0 nylon monofilament up the internal carotid artery to the origin of the middle cerebral artery (MCA) (Zea Longa et al, 1989 Stroke 20:84). After 1 h the filament was retracted, the ischemic territory reperfused and the animal allowed to recover. After 24 h the rats were sacrificed, at which time brains were removed and analyzed histologically to quantify infarct volume.
(§2) Groups of animals were treated with either vehicle (PBS) or the bradykinin B2 receptor antagonist Hoe 140 (Hoechst) by continuous subcutaneous infusion via osmotic mini-pumps. Primed mini osmotic pumps (Alza Corp.,) were implanted into the subcutaneous space at the scruff of the neck immediately prior to induction of cerebral ischemia. The pumps were loaded to release 300 ng/kg/min Hoe 140 and delivered compound or vehicle at a rate of 8 μl/h.
(§3) In a separate experiment groups of animals were treated with either vehicle (sterile isotonic saline), TA2 (mouse anti rat VLA4: Seikagaku America Inc.) or an isotype control antibody (mouse anti-human LFA3: obtained from Biogen, Inc.). All treatments were administered 24 h before surgery intravenously (2.5 mg/kg or appropriate volume of vehicle)
(§4) Vehicle treated control rats that underwent MCAO sustained extensive lesions throughout cortical and subcortical regions of the brain. The ischemic hemisphere was markedly swollen and significant behavioral deficits were observed (eg. hemiparesis resulting in rotation and limb weakness). Spontaneously hypertensive rats sustained more extensive and reproducible brain infarcts than Sprague Dawley rats subjected to the same surgical procedure. Infarct volumes are expressed as mean values+/−s.e.m. Statistical analysis was performed using an unpaired Students' t-test (* denotes p<0.05, ** denotes p<0.01).

Sprague Dawley (SD) rats = assay: Reversible middle cerebral artery occlusion (MCAO), infarct volume, Sprague Dawley rats; type: in vivo, rat; conditions: 300 ng/kg/min continuous subcutaneous infusion, vs vehicle treated controls, 24 h after induction of cerebral ischemia (1 h MCAO)
Experimental: as §1, §2, §3, §4

Hoe 140
reduction of cortical infarct volume [1]: 43% | reduction of subcortical infarct volume [1]: 17% | reduction of total infarct volume [1]: 37% | reduction of cortical infarct volume (Sprague Dawley (SD) rats): 93% | reduction of subcortical infarct volume (Sprague Dawley (SD) rats): 24% | reduction of total infarct volume (Sprague Dawley (SD) rats): 57%
